Assay results: patent US7514419B2, “Phosphorus-containing thyromimetics” (Metabasis Therapeutics, Inc., priority 2003, dated 2009)

Columns and labels:
[1] = tested on: Hypercholesterolemic rats; assay: Cholesterol lowering in hypercholesterolemic rats; assay type: in vivo, rat; details: for change in vivo at 0.2 mg/kg/day / change in vivo at 0.5 mg/kg/day: Rattus norvegicus, percentage change from pre-dose cholesterol; for cholesterol lowering: 0.5 mg/kg/d orally; for change in vivo at 0.5 mg/kg/day: delivered p.o. (0.5 mg/kg/d)
Sprague Dawley (SD) rat = assay: Cardiovascular activity in the Sprague Dawley rat, 7 days oral; assay type: in vivo; details: SD rats, Compound 18 1 mg/kg, Compound cis-13-1 1-50 mg/kg/day
Excerpt: Method: […] The control group (n=6) was given vehicle only. […] On the 7th day after the start of dosing, animals were anesthetized with Isofluorane and the left ventricle cannulated with a high fidelity catheter tip transducer via the right carotid artery. Left ventricular pressure, its first derivative (LVdP/dt), lead I ECG, and heart rate (HR) triggered off the ECG waveform, were digitally recorded. LV dP/dt is a well accepted measure of ionotropic state. Systolic and diastolic aortic pressures were measured by retracting the catheter into the proximal aorta.

ZDF rats = details: rat, in vivo, 28 days
Experimental: Compound 18 was administered at doses up to 5 mg/kg/d. Compound cis-13-1 was administered at doses up to 50 mg/kg/d. We reasoned that the ZDF rat, as a metabolically challenged animal model, would be more sensitive to the potential adverse cardiac effects of thyromimetics than a normal, cholesterol-fed rat. At sacrifice, heart rate, and the first derivative of left ventricular pressure (LV dP/dt) were measured with a Millar catheter inserted into the left ventricle.

cholesterol-fed rat = assay: Subacute study in cholesterol-fed rats, IP once-a-day for seven days: serum cholesterol, heart weight, heart mGPDH; details: cholesterol-fed rats, IP 7 days; Compound 17 at 0.1-1 mg/kg/day
Experimental: The cholesterol-fed rat is an animal model of hypercholesterolemia generated by feeding the animals a diet with high cholesterol content.
Methods: Rats were maintained on a diet containing 1.5% cholesterol and 0.5% cholic acid for 2 weeks prior to initiation of treatment. Serum cholesterol values were assessed and the animals randomized into groups for treatment.

[2] = tested on: normal rats maintained on a cholesterol-containing diet; assay: Continuous infusion study in rats on a cholesterol-containing diet; details: continuous infusion 1 mg/kg/day; for cardiovascular parameters (heart rate, LV dP/dt, blood pressure): day 7 or day 14
Experimental: Screening for thyromimetic activity was performed in normal rats maintained on a cholesterol-containing diet.

[3] = molecular target: T1, human thyroid hormone receptors TRα1 (Homo sapiens, UniProt P10827); assay: Receptor binding: labeled T3 binding/displacement, gel filtration and scintillation proximity assay (SPA); details: read-out: Ki TRα
T1 sequence (P10827 1-410 isoform P10827-2): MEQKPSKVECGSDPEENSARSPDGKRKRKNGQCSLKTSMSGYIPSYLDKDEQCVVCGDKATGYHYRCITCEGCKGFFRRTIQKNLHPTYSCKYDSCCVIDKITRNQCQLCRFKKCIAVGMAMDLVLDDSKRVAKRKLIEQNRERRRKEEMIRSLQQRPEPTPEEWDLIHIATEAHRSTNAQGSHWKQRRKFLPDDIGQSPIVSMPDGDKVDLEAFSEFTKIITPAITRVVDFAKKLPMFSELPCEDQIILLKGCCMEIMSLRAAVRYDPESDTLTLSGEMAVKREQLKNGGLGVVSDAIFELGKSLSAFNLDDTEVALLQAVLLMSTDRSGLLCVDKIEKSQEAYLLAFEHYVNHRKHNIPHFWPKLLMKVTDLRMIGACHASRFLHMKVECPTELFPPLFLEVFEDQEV
T1 sequence (P19793 1-462 partner): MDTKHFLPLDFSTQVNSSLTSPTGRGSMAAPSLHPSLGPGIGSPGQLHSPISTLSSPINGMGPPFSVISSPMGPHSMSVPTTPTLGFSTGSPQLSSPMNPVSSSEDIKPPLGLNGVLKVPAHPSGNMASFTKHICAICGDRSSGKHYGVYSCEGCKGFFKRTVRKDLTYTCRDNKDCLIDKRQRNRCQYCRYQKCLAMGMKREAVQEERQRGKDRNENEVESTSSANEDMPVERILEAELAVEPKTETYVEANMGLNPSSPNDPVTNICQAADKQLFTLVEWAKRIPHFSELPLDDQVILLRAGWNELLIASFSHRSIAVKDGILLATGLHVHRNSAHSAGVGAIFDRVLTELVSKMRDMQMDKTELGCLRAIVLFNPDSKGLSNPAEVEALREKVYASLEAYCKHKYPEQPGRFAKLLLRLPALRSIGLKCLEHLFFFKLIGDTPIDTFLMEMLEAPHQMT

[4] = molecular target: T2, human thyroid hormone receptors TRβ1 (Homo sapiens, UniProt P10828); assay: as above; details: read-out: Ki TRβ
T2 sequence (P10828 1-461): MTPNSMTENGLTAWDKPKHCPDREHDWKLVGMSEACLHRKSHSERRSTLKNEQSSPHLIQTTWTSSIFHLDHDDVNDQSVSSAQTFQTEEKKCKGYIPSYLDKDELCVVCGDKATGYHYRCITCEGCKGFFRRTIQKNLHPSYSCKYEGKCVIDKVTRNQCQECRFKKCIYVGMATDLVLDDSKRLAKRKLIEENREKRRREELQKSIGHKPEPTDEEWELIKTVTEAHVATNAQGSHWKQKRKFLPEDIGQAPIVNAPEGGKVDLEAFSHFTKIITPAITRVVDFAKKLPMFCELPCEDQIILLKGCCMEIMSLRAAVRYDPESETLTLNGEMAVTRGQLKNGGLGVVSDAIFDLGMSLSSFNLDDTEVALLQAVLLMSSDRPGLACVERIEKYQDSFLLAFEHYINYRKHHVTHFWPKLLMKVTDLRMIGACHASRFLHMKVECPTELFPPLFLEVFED
T2 sequence (P19793 1-462 partner): T1 sequence (P19793 1-462 partner)

Compound: CC(C)c1cc(Cc2c(Cl)cc(OCP(=O)(O)O)cc2Cl)ccc1O [Compound 7-5, [3,5-dichloro-4-(4′-hydroxy-3′-iso-propylbenzyl)phenoxy] methylphosphonic acid]
- change in vivo at 0.2 mg/kg/day ([1]; ip, delivered i.p (0.2 mg/kg/d)): -63.3%
- change in vivo at 0.2 mg/kg/day ([1]; po, delivered p.o. (0.2 mg/kg/d)): -38%

Compound: CC(C)c1cc(Oc2c(Br)cc(CP(=O)(OCOC(=O)C(C)(C)C)OCOC(=O)C(C)(C)C)cc2Br)ccc1O [Compound 12-5, Di-(pivaloyloxymethyl)[3,5-dibromo-4-(4′-hydroxy-3′-iso-propylphenoxy)benzyl] phosphonate]
- cholesterol lowering [1]: significant lowering of cholesterol

Compound: CC(C)c1cc(Oc2c(I)cc(OCP(=O)(OCOC(=O)C(C)(C)C)OCOC(=O)C(C)(C)C)cc2I)ccc1O [Compound 12-7, Di(pivaloyloxymethyl)[3,5-diiodo-4-(4′-hydroxy-3′-iso-propylphenoxy)phenoxy]methylphosphonate]
- change in vivo at 0.5 mg/kg/day ([1]; po): -39.1%

Compound: Cc1cc(OC[P@@]2(=O)OCC[C@@H](c3cccc(Cl)c3)O2)cc(C)c1Cc1ccc(O)c(C(C)C)c1 [Compound 13-1-cis, Cis (S)-2-[(3,5-Dimethyl-4-(4′-hydroxy-3′-iso-propylbenzyl)phenoxy)methyl]-4-(3-Chlorophenyl)-2-oxo-2λ^5-[1,3,2]-dioxaphosphinane]
- HR, LV dP/dt and aortic pressure compared to vehicle (Sprague Dawley (SD) rat): not significantly different compared to vehicle treated animals
- heart weight and heart weight normalized to body weight (Sprague Dawley (SD) rat): no significant changes
- TI Improvement, ED15 HR (ZDF rats; ZDF): >39
- TI Improvement, ED25 LV dP/dt (ZDF rats; ZDF): >102
- calculated TI in a non-metabolically challenged animal with respect to LV dP/dt (ZDF rats): > 10,000
- calculated TI in a non-metabolically challenged animal with respect to heart rate (ZDF rats): > 3900
- cholesterol lowering [1]: significant lowering of cholesterol

Compound: CC(C)c1cc(Cc2c(Cl)cc(OC[P@@]3(=O)OCC[C@@H](c4cccc(Cl)c4)O3)cc2Cl)ccc1O [Compound 13-11, Cis (S)-2-[(3,5-dichloro-4-(4′-hydroxy-3′-iso-propylbenzyl)phenoxy)methyl]-4-(3-chlorophenyl)-2-oxo-2λ^5-[1,3,2]-dioxaphosphonane]
- change in vivo at 0.5 mg/kg/day ([1]; po): -24.8%

Compound: CCOC(=O)[C@H](C)NP(=O)(Cc1cc(Br)c(Oc2ccc(O)c(C(C)C)c2)c(Br)c1)N[C@@H](C)C(=O)OCC [Compound 15-5, di-N-(L-1-ethoxycarbonylethylamino)[3,5-dibromo-4-(4′-hydroxy-3′-iso-propylphenoxy)benzyl]phosphonamide]
- cholesterol lowering [1]: significant lowering of cholesterol

Compound: CCOC(=O)[C@H](C)NP(=O)(COc1cc(Cl)c(Cc2ccc(O)c(C(C)C)c2)c(Cl)c1)N[C@@H](C)C(=O)OCC [Compound 15-7]
- change in vivo at 0.5 mg/kg/day ([1]; po): -29.1%

Compound: Cc1cc(OCC(=O)O)cc(C)c1Cc1ccc(O)c(C(C)C)c1 [Compound 17, [3,5-dimethyl-4-(4′-hydroxy-3′-iso-propylbenzyl)-phenoxy]acetic acid, reference compound]
- cardiac hypertrophy (cholesterol-fed rat): Undesirable cardiac hypertrophy was observed
- total cholesterol at day 7 [2]: significant decrease in cholesterol
- total cholesterol at day 14 [2]: no significant decrease in cholesterol was observed

Compound: Cc1cc(C(=O)CP(=O)(O)O)cc(C)c1Cc1ccc(F)c(C(C)C)c1 [Compound 41-2]
- Ki [3]: > 2 µM
- Ki [4]: > 2 µM

Compound: Cc1cc(CCP(=O)(O)O)cc(C)c1Oc1ccc(F)c(C(C)C)c1 [Compound 42-2]
- Ki [3]: > 2 µM
- Ki [4]: > 2 µM

Compound: COP(=O)(O)COc1cc(C)c(Cc2ccc(O)c(C(C)C)c2)c(C)c1 [Compound 69, [3,5-dimethyl-4-(4′-hydroxy-3′-iso-propylbenzyl)phenoxy]-methylphosphonic acid monomethyl ester]
- total cholesterol at day 7 [2]: cholesterol lowering effects
- total cholesterol at day 14 [2]: cholesterol lowering effects
- cardiovascular parameters (heart rate, LV dP/dt, blood pressure) [2]: no changes in any of the cardiovascular parameters

Compound: CCOP(=O)(O)COc1cc(C)c(Cc2ccc(O)c(C(C)C)c2)c(C)c1 [Compound 69-1, [3,5-dimethyl-4-(4′-hydroxy-3′-iso-propylbenzyl)phenoxy]methylphosphonic acid monoethyl ester]
- total cholesterol at day 7 [2]: cholesterol lowering effects
- total cholesterol at day 14 [2]: cholesterol lowering effects
- cardiovascular parameters (heart rate, LV dP/dt, blood pressure) [2]: no changes in any of the cardiovascular parameters

Compound: Cc1cc(OCP(C)(=O)O)cc(C)c1Cc1ccc(O)c(C(C)C)c1 [Compound 70, [3,5-dimethyl-4-(4′-hydroxy-3′-iso-propylbenzyl)-phenoxymethyl]methylphosphinic acid]
- total cholesterol at day 7 [2]: cholesterol lowering effects
- total cholesterol at day 14 [2]: cholesterol lowering effects
- cardiovascular parameters (heart rate, LV dP/dt, blood pressure) [2]: no changes in any of the cardiovascular parameters
